Like-named read-outs stand apart in the source and are kept apart here.
Assays:
A375 cells (parental) [1] = test: Dose-response curves and IC50, PrestoBlue cell viability, 72 h; type: cell-based, human; settings: read-out: Half-maximal inhibitory concentration value (IC50), Mean
[2] = test system: A375-XP cells (Vemurafenib-resistant); test: as above; type: cell-based, human; settings: n.e. = did not suppress growth below 50% in the tested concentration range; for IC50: read-out: Half-maximal inhibitory concentration value (IC50), Mean
[3] = test system: A375-GP cells (Dabrafenib-resistant); test: as above; type: cell-based, human; settings: n.e. = did not suppress growth below 50% in the tested concentration range; for IC50: read-out: Half-maximal inhibitory concentration value (IC50), Mean
[4] = test system: NHDF (normal human dermal fibroblasts); test: Dose-response curves and IC50 in non-cancer cells, cell viability, 72 h; settings: for IC50: Homo sapiens, NHDF, read-out: Half-maximal inhibitory concentration (IC50), NHDF Mean; for effect on healthy cells, cell viability (in words): fibroblasts (NHDF)
Experimental: (§1) The IC50 values (nM) were calculated as indicated in Methods.

[5] = test system: NHEM (normal human epidermal melanocytes); test: as above; settings: for effect on healthy cells, cell viability (in words): melanocytes (NHEM)
Experimental: as §1

A375 cells = test: Synergy determination with the Chou-Talalay method (CompuSyn), cell viability 72 h; type: cell-based, human; settings: 72 h cell viability, Chou-Talalay / Synergyfinder
[6] = test system: A375 parental cells expressing iRFP; test: Long-term inhibitor treatment, iRFP fluorescence proliferation monitoring; type: cell-based, human
Experimental: A375 parental and BRAFi-resistant cells, virally transduced with the near-infrared fluorescent protein (iRFP) were seeded at a density of 2500 cells/well in a 24-well plate (Greiner) in at least technical triplicates. Inhibitors, single or in combination, were added at the indicated amounts and replenished every 72 h for a duration of 76 days. To assess whether any remaining cells have become resistant to the treatment and would re-emerge, the drugs were removed and the cells underwent “drug holidays” for an additional 21 days. During the long-term treatment, cell proliferation was monitored bi-weekly on a LI-COR Odyssey Infrared Imaging System (LI-COR Biosciences). Fluorescence intensity was quantified with the Image Studio™ Lite software (LI-COR Biosciences).

melanoma cell lines = settings: several other melanoma cell lines; cited from earlier work
501Mel cells (parental) [7] = test: Kinase inhibitor library screening, PrestoBlue cell viability, 1 or 10 μM, 72 h; settings: 501Mel Parental, in %
Method in brief: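 Each compound was applied to parental melanoma cells and to derivatives made resistant to Vemurafenib or Dabrafenib. After treatment, viability was read with PrestoBlue on a plate reader and expressed as % of untreated cells, with each line run at least in duplicate.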

[8] = test system: 501Mel-GP cells (Dabrafenib-resistant); test: as above; settings: 501Mel GP, in %
[9] = test system: 501Mel-XP cells (Vemurafenib-resistant); test: as above; settings: 501Mel XP, in %
A375 cells (parental) [10] = test: as above; settings: A375 Parental, in %
[11] = test system: A375-GP cells (Dabrafenib-resistant); test: as above; settings: A375 GP, in %
[12] = test system: A375-XP cells (Vemurafenib-resistant); test: as above; settings: A375 XP, in %
IGR37 cells (parental) [13] = test: as above; settings: IGR37 Parental, in %
[14] = test system: IGR37-GP cells (Dabrafenib-resistant); test: as above; settings: IGR37 GP, in %
[15] = test system: IGR37-XP cells (Vemurafenib-resistant); test: as above; settings: IGR37 XP, in %
[16] = test system: Tyr15 phosphorylation of CDK1 (P-cdc2); test: Western blot, phospho-cdc2 (Tyr15); type: cell-based, human; settings: parental and resistant A375 cells, 3 h treatment
Experimental: (§4) Cells were seeded at a density of 10^5 cells/well in 24-well plates (Greiner). 24 h post seeding, cells were treated with inhibitors at indicated amounts for 3 h and/or 24 h. […] The following primary antibodies were used: anti-phospho-CHK1 (Ser317) (Cell Signalling Technology, 1:1000), anti-CHK1 (Cell Signalling Technology, 1:1000), anti-phospho-cdc2 (Tyr15) (Cell Signalling Technology, 1:1000), anti-cdc2 (Cell Signalling Technology, 1:1000), anti-PARP (Cell Signalling Technology, 1:1000), anti-cleaved-PARP (Cell Signalling Technology, 1:1000), anti-phospho-Erk (Tyr202/Tyr204) (Cell Signalling Technology, 1:2000), anti-Erk1/2 (Santa Cruz, Erk1 = 1:1000, Erk2 = 1:2000), anti-phospho-Akt (Ser473) (Cell Signalling Technology, 1:1500), anti-Akt1/2 (Santa Cruz, 1:1000), anti-Vinculin (Abcam, 1:1000) and anti-Tubulin (Santa Cruz, 1:5000). HRP-labeled secondary antibodies were purchased from Cell Signaling Technology (Boston, MA).

PARP cleavage = test: Western blot, PARP cleavage in A375 cells; type: cell-based, human; settings: A375, A375-XP, A375-GP; 24 h treatment
Experimental: as §4

[17] = test system: A375 cells (parental sensitive) tumors; test: In vivo assay, subcutaneous melanoma tumors in NSG mice; design: species or system NOD scid gamma (NSG) mice; settings: NSG mice with A375 or A375-XP tumors, 8 days of daily treatment
Experimental: NOD scid gamma (NSG) mice were bred in-house and experiments were performed according to all applicable laws and regulations, after receiving approval by the institution’s animal experimentation ethics committee and the veterinarian service of the Ministry of Agriculture (Permit Number: 18-MDM-01). Single parental sensitive A375 cells (0.5 × 10^6 cells) and Vemurafenib-resistant A375-XP cells (2 × 10^6 cells) were resuspended in 100 μL of 1:1 mixed serum-free medium and matrigel (BD Biosciences) and injected subcutaneously in 6–8 week-old mice. […] Control mice received the respective vehicle by oral gavage and intraperitoneal injection. […] Statistical analysis was done using a two-way ANOVA followed by post-hoc Tukey’s multiple comparison tests.

IGR37 cells (parental) [18] = test: Dose-response curves and IC50, PrestoBlue cell viability, 72 h; settings: Homo sapiens, IGR-37, 72 h, read-out: Half-maximal inhibitory concentration (IC50)
Experimental: (§5) All inhibitors used in this study were purchased from Selleck Chemicals (Houston, USA). They were dissolved in DMSO to a stock concentration of 10 mM according to the manufacturer’s instructions and stored at − 80 °C. […] Cell viability was measured with the PrestoBlue Cell Viability Reagent (ThermoFisher Scientific) on a CLARIOstar Monochromator microplate reader (BMG Labtech). Using the GraphPad Prism v5.04 software, the half-maximal inhibitor concentration values (IC50) were determined from the curve using the nonlinear log (inhibitor) vs response-variable slope (four parameters) equation. […] The IC50’s were determined for 3 biological replicates and are listed with their standard deviations.
(§6) Values represent the mean of at least three biological replicates; one representative curve of at least 3 biological replicates is depicted. _XP: cells resistant to Vemurafenib (red), _GP: cells resistant to Dabrafenib (green).

[19] = test system: IGR37-XP cells (Vemurafenib-resistant); test: as above; settings: Homo sapiens, 72 h, read-out: Half-maximal inhibitory concentration (IC50)
Experimental: as §5, §6

[20] = test system: IGR37-GP cells (Dabrafenib-resistant); test: as above; settings: Homo sapiens, 72 h, read-out: Half-maximal inhibitory concentration (IC50)
501Mel cells (parental) [21] = test: as above; settings: Homo sapiens, 72 h, read-out: Half-maximal inhibitory concentration (IC50)
Experimental: as §5, §6

[22] = test system: 501Mel-XP cells (Vemurafenib-resistant); test: as above; settings: Homo sapiens, 72 h, read-out: Half-maximal inhibitory concentration (IC50)
Experimental: as §5, §6

[23] = test system: 501Mel-GP cells (Dabrafenib-resistant); test: as above; settings: Homo sapiens, 72 h, read-out: Half-maximal inhibitory concentration (IC50)
Experimental: as §5

P-Akt levels = test: Western blot, phospho-Akt; type: cell-based, human; settings: A375 cells, 3 h treatment
Experimental: (§2) Cells were seeded at a density of 10^5 cells/well in 24-well plates (Greiner). 24 h post seeding, cells were treated with inhibitors at indicated amounts for 3 h and/or 24 h. Western blot analysis was performed as described before. The following primary antibodies were used: anti-phospho-CHK1 (Ser317) (Cell Signalling Technology, 1:1000), anti-CHK1 (Cell Signalling Technology, 1:1000), anti-phospho-cdc2 (Tyr15) (Cell Signalling Technology, 1:1000), anti-cdc2 (Cell Signalling Technology, 1:1000), anti-PARP (Cell Signalling Technology, 1:1000), anti-cleaved-PARP (Cell Signalling Technology, 1:1000), anti-phospho-Erk ([…]) (Cell Signalling Technology, 1:2000), anti-Erk1/2 (Santa Cruz, Erk1 = 1:1000, Erk2 = 1:2000), anti-phospho-Akt (Ser473) (Cell Signalling Technology, 1:1500), anti-Akt1/2 (Santa Cruz, 1:1000), anti-Vinculin (Abcam, 1:1000) and anti-Tubulin (Santa Cruz, 1:5000). HRP-labeled secondary antibodies were purchased from Cell Signaling Technology (Boston, MA).
(§3) Supplementary file 13046_2019_1038_MOESM6_ESM.pdf: Additional file 6: Figure S4. Western blot analysis for selected drug treatments and apoptosis assays in healthy and melanoma cells. […] Cells were treated for 3 h with indicated concentrations of inhibitors. […] P-cdc2 (CDK1), cdc2 (CDK1), p-Chk1 and Chk1 were detected after 3 h drug treatment, while PARP cleavage was detected after 24 h treatment. […]

Erk phosphorylation = test: Western blot, phospho-Erk; type: cell-based, human; settings: A375 cells, 3 h treatment
Experimental: as §2, §3

melanoma tumors = settings: cited from earlier work
[24] = Homo sapiens, A-375, n.e. = did not suppress growth below 50% in the tested concentration range

Structure (SMILES): CO[C@@H](C(=O)N1Cc2n[nH]c(NC(=O)c3ccc(N4CCN(C)CC4)cc3)c2C1)c1ccccc1 [Danusertib]
- IC50 (A375 cells (parental) [1]; [24]): 0.328 µM
- IC50 ([2]; Homo sapiens): 0.295 µM
- IC50 ([3]; Homo sapiens): 0.257 µM
- IC50 [4]: 1.17 µM
- IC50 ([5]; Homo sapiens, Melanocyte, read-out: Half-maximal inhibitory concentration (IC50), NHEM Mean): 0.37 µM
- synergistic effects with the BRAF inhibitors Vemurafenib and/or Dabrafenib (in words) (A375 cells): clear synergistic effects
- long-term cell growth under drug until day 76 (in words) ([6]; drugs replenished every 72 h, indicated concentrations): inconsistent
- apoptosis and migration of melanoma cell lines (in words) (melanoma cell lines): induced apoptosis and inhibited migration

Structure (SMILES): C=CCn1c(=O)c2cnc(Nc3ccc(N4CCN(C)CC4)cc3)nc2n1-c1cccc(C(C)(C)O)n1 [MK-1775, reference compound]
- cell viability (kinase inhibitor library screening) (501Mel cells (parental) [7]; 1μΜ): 35.1
- cell viability (kinase inhibitor library screening) (501Mel cells (parental) [7]; 10μΜ): 24.2
- cell viability (kinase inhibitor library screening) ([8]; 1μΜ): 27.8
- cell viability (kinase inhibitor library screening) ([8]; 10μΜ): 24.0
- cell viability (kinase inhibitor library screening) ([9]; 1μΜ): 11.1
- cell viability (kinase inhibitor library screening) ([9]; 10μΜ): 6.5
- cell viability (kinase inhibitor library screening) (A375 cells (parental) [10]; 1μΜ): 25.2
- cell viability (kinase inhibitor library screening) (A375 cells (parental) [10]; 10μΜ): 4.9
- cell viability (kinase inhibitor library screening) ([11]; 1μΜ): 17.5
- cell viability (kinase inhibitor library screening) ([11]; 10μΜ): 1.8
- cell viability (kinase inhibitor library screening) ([12]; 1μΜ): 43.8
- cell viability (kinase inhibitor library screening) ([12]; 10μΜ): 8.7
- cell viability (kinase inhibitor library screening) (IGR37 cells (parental) [13]; 1μΜ): 20.4
- cell viability (kinase inhibitor library screening) (IGR37 cells (parental) [13]; 10μΜ): 9.8
- cell viability (kinase inhibitor library screening) ([14]; 1μΜ): 46.6
- cell viability (kinase inhibitor library screening) ([14]; 10μΜ): 41.7
- cell viability (kinase inhibitor library screening) ([15]; 1μΜ): 45.0
- cell viability (kinase inhibitor library screening) ([15]; 10μΜ): 36.2
- IC50 (A375 cells (parental) [1]; [24]): 0.388 µM
- IC50 ([2]; Homo sapiens): 0.809 µM
- IC50 ([3]; Homo sapiens): 0.325 µM
- effect on healthy cells, cell viability (in words) [4]: very modest effects
- effect on healthy cells, cell viability (in words) [5]: very modest effects
- synergistic effects with the BRAF inhibitors Vemurafenib and/or Dabrafenib (in words) (A375 cells): clear synergistic effects
- inhibitory CDK1 (cdc2) phosphorylation level (in words) [16]: reduced levels of inhibitory CDK1 (cdc2) phosphorylation
- Cleavage of PARP (in words) (PARP cleavage): induced
- body weight and side effects during treatment (in words) [17]: did not lose weight
- IC50 (IGR37 cells (parental) [18]): 0.286 µM
- IC50 [19]: 0.201 µM
- IC50 [20]: 0.289 µM
- IC50 (501Mel cells (parental) [21]): 0.257 µM
- IC50 [22]: 0.22 µM
- IC50 [23]: 0.289 µM

Structure (SMILES): CNC(=O)c1ccccc1Nc1nc(Nc2ccc(N3CCOCC3)cc2OC)ncc1Cl [TAE226]
- IC50 (A375 cells (parental) [1]; n.e. = did not suppress growth below 50% in the tested concentration range): 0.489 µM
- IC50 [2]: 0.176 µM
- IC50 [3]: 0.301 µM
- synergistic effects with the BRAF inhibitors Vemurafenib and/or Dabrafenib (in words) (A375 cells): Vemurafenib showed synergism
- P-Akt levels (in words) (P-Akt levels): blocking P-Akt levels

Structure (SMILES): CCCS(=O)(=O)Nc1ccc(F)c(C(=O)c2c[nH]c3ncc(-c4ccc(Cl)cc4)cc23)c1F [Vemurafenib]
- IC50 (A375 cells (parental) [1]; [24]): 0.135 µM
- Half-maximal inhibitory concentration value (IC50), Mean [2]: n.e.
- Half-maximal inhibitory concentration value (IC50), Mean [3]: n.e.
- effect on healthy cells, cell viability (in words) [4]: did not have any effect
- effect on healthy cells, cell viability (in words) [5]: did not have any effect
- Erk phosphorylation (in words) (Erk phosphorylation): inhibition of Erk phosphorylation by Vemurafenib was confirmed

Structure (SMILES): CC[C@@H]1C(=O)N(C)c2cnc(Nc3ccc(C(=O)N[C@H]4CC[C@H](N5CCN(CC6CC6)CC5)CC4)cc3OC)nc2N1C(C)C [Volasertib]
- IC50 (A375 cells (parental) [1]; [24]): 0.021 µM
- IC50 ([2]; Homo sapiens): 0.021 µM
- IC50 ([3]; Homo sapiens): 0.015 µM
- IC50 [4]: 0.075 µM
- synergistic effects with the BRAF inhibitors Vemurafenib and/or Dabrafenib (in words) (A375 cells): synergistic effects only with Dabrafenib
- regrowth after removal of drugs (after day 76, by day 97) (in words) [6]: had started to grow back
- long-term cell growth under drug until day 76 (in words) ([6]; 40 nM (also 20 nM, data not shown)): killed all cells
- effect on melanoma tumors in vivo (in words) (melanoma tumors): delay growth of melanoma tumors and to cause regression by inducing apoptosis in vivo

— PMC6364417, “Kinase inhibitor library screening identifies synergistic drug combinations effective in sensitive and resistant melanoma cells” (Journal of Experimental & Clinical Cancer Research : CR, 2019)
